Entries after “also recorded” stand apart in the source; their conditions may differ.
Assays:
[1] = system: CAM (chorioallantoic membrane); assay: Test for angiogenic activity, CAM (chorioallantoic membrane) assay; assay type: in vivo, chicken; details: for Angiogenic activity compared to the control: CAM assay, Table 3 and FIG. 5
Method: NAPS-1-P 0.5%-containing liposomes and the PhS-1-P 0.5%-containing liposomes, respectively prepared in Examples 1 and 4, were assayed for angiogenesis, with the use of phosphate buffered saline as a negative control, sphingosine-1-phosphate (PS-1-P) as a positive control, and the angiogenesis inhibitor trimethyl phytosphingosine (TMP) as a suppressive control.
For angiogenesis assay, CAM (chorioallantoic membrane) was used as a model. CAM from developing chicken eggs is routinely used in biological and biomedical research to investigate angiogenesis.
Fertile hen's eggs which were within one day after being laid, were purchased. Three days later, 6 mL of the white was removed from the fertile hen's eggs using a syringe, as illustrated in i of FIG. 4. Afterward, the eggs were opened at the top, as illustrated in ii of FIG. 4. From three days after egg-laying, the embryo started to develop. The membrane surrounding the embryo is CAM. Then, a cover slip on which a test drug was dropwise loaded and dried was placed on CAM, as illustrated in iii of FIG. 4. After the lapse of three days, the eggs were examined for drug-induced angiogenesis under a microscope, as illustrated in iv of FIG. 4.

[2] = system: Balb/c mice, depilated area; assay: Test for hair growth in Balb/c mice (2), once a day for four weeks; assay type: in vivo; details: applied once a day for four weeks
Excerpt: Balb/c mice, 5-6 weeks old, were purchased and shaved on the side to remove hair partially, followed by applying a depilatory cream to the shaved area to remove hair therefrom completely. The mice which were not completely depilated were excluded from the test. The suitable mice were randomly housed in cages at a population of three per cage. A total of five cages were employed.
The mice were left for one day after hair removal, and then the depilated area was coated once a day with the NAPS-1-P-containing liposomes prepared in Example 1. A total of 14 rounds of application were conducted. Hair growth was compared between treated groups and non-treated groups.
The NAPS-1-P 0.5%-containing liposomes (Example 1), the NAPS-1-P 1.0%-containing liposomes (Example 2), and the PhS-1-P 0.5%-containing liposomes (Example 4) were tested for hair growth activity in the same manner as in Experimental Example 1, with the exception that they were applied once a day for four weeks. In this context, Rogaine 5% (minoxidil 5% solution) was used as a positive control.

[3] = microscopic observation three days after placing test drug on CAM

Row | Compound | Angiogenic activity compared to the control [1] | Angiogenesis results: count graded + (weakly promotive of angiogenesis) [1, 3] | Angiogenesis results: count graded ++ (highly promotive of angiogenesis) [1, 3] | Hair growth promoting activity, comparison between substances, concentrations or with minoxidil 5% solution (FIGS. 2 and 3) [2] | Angiogenesis results: count graded +/− (insignificantly promotive of angiogenesis) [1, 3] | Angiogenesis results: count graded − (weakly inhibitive of angiogenesis) [1, 3] | Angiogenesis results: count graded −− (highly inhibitive of angiogenesis) [1, 3]
1 | CCCCCCCCCCCCCC[C@@H](O)[C@@H](O)[C@H](COP(=O)(O)O)NC(C)=O [NAPS-1-P, N-acetylphytosphingosine-1-phosphate] | significant angiogenic activity; also recorded: peak activity | 3 | 7 | superior of NAPS-1-P to PhS-1-P | – | – | –
2 | CCCCCCCCCCCCC/C=C/[C@@H](O)[C@@H](N)COP(=O)(O)O [PS-1-P, sphingosine-1-phosphate, reference compound] | – | 5 | 4 | – | 1 | – | –
3 | trimethyl phytosphingosine [TMP, reference compound] | – | – | – | – | – | 2 | 8
4 | CCCCCCCCCCCCCC[C@@H](O)[C@@H](O)[C@@H](N)COP(=O)(O)O [PhS-1-P, phytosphingosine-1-phosphate] | significant angiogenic activity | 5 | 4 | – | 1 | – | –

From US8729052B2, “Composition for the prevention and treatment of alopecia, or for hair growth” (Phytos Co., Ltd., priority 2008, dated 2014)
